Reference: patent publication US10947289B2, “Glyco-modified atrial natriuretic peptide” (priority 2013, dated 2021)

What was measured:
Type in all cases: in vivo
[1] = Detection in blood after subcutaneous administration to a monkey
cGMP level in blood = cGMP level in blood after subcutaneous administration to a monkey
[2] = test system: cGMP concentration in plasma; test: cGMP concentration in plasma of rats after intravenous injection (Test Example 3); details: rat, 100 nmol/kg i.v.
Method: The duration time (the effect of persistently elevating cGMP in blood and the time for which a test substance was detectable in blood) of each modified peptide prepared in Example 2 in the blood of rats was examined by the following method:
Before the administration and 15, 30, 60, 90, 120, 180, and 240 minutes after the administration, blood was sampled (200 μL/sampling) over time from the jugular vein. The blood samples were immediately left on ice.
The collected blood samples were centrifuged at 5000 rpm at 4° C. for 5 minutes by use of a centrifuge (Sigma 4K15, rotor: Nr12130-H). The separated plasma samples were divided into two types (samples for PK measurement and for cGMP measurement) and stored at −80° C. until measurement.
The cGMP concentration in plasma was measured using Amersham cGMP Enzyme Immunoassay Biotrak™ (EIA) System (dual range) according to the protocol attached thereto.

[3] = Detection of test substance in rat plasma by LC-MS/MS (Test Example 3); details: 100 nmol/kg i.v.
How it was run: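 Reported as final detection time: LC-MS/MS measured test substance in rat plasma collected from the jugular vein at 15, 30, 60, 90, 120, 180 and 240 min post-dose. Sample prep used a labelled hANP internal standard, acidic solvent, and sequential 50K then 3K ultrafiltration, keeping the 3K retentate.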

**Q.** For CC[C@H](C)[C@@H]1NC(=O)[C@H](CCCNC(=N)N)NC(=O)[C@H](CC(=O)O)NC(=O)[C@H](CCSC)NC(=O)[C@H](CCCNC(=N)N)NC(=O)CNC(=O)CNC(=O)[C@H](Cc2ccccc2)NC(=O)[C@@H](NC(=O)[C@H](CO)NC(=O)[C@H](CO)NC(=O)[C@H](CCCNC(=N)N)NC(=O)[C@H](CCCNC(=N)N)NC(=O)[C@H](CC(C)C)NC(=O)[C@@H](N)CO)CSSC[C@@H](C(=O)N[C@@H](CC(N)=O)C(=O)N[C@@H](CO)C(=O)N[C@@H](Cc2ccccc2)C(=O)N[C@@H](CCCNC(=N)N)C(=O)N[C@@H](Cc2ccc(O)cc2)C(=O)O)NC(=O)CNC(=O)[C@H](CC(C)C)NC(=O)CNC(=O)[C@H](CO)NC(=O)[C@H](CCC(N)=O)NC(=O)[C@H](C)NC(=O)CNC1=O [Native hANP, hANP(1-28)], which “Detection in blood after administration” value [1] is on record?
**A.** The value was “no longer detected in blood 30 minutes after the administration”.

**Q.** What about the “Elevation of the cGMP level in blood after administration” value (cGMP level in blood) of the same compound?
**A.** The value was “returns, 60 minutes after the administration, to the same level as that before the administration”.

**Q.** And the AUC60-240 ([2]; plasma cGMP)?
**A.** The AUC60-240 was ≤ 0 pmol·h/mL.

**Q.** And the “All values integrated AUC 0-240” value ([2]; plasma cGMP, 0 to 240 minutes, Pre-value as baseline, points under baseline negative)?
**A.** Its value is 13.90 (pmol/ml)*h.

**Q.** And the “All values integrated AUC 60-240” value ([2]; plasma cGMP, 60 to 240 minutes, Pre-value as baseline, points under baseline negative)?
**A.** The value was −33.86 (pmol/ml)*h.

**Q.** And the “Pre-value and higher values integrated AUC 60-240” value ([2]; plasma cGMP, 60 to 240 minutes, only points above baseline)?
**A.** The value was 0.00 (pmol/ml)*h.

**Q.** What about the “Elevation of cGMP in plasma at 60 minutes or later” value [2] of the same compound?
**A.** The value was “disappeared completely”.

**Q.** And the “cGMP level 30 minutes after the administration” value [2]?
**A.** The value was “a level close to that before the start of the administration”.

**Q.** What about the “Maximum time of detection after administration” value ([3]; rat plasma, LC-MS/MS, time at which the test substance was finally detected) of the same compound?
**A.** The value was 0 h.

**Q.** What about the “Detection of test substance in plasma sample” value ([3]; rat, 15 minutes after the administration) of the same compound?
**A.** Its value is “no longer detected”.
